Experimental data from PMC2707266 (2009).
Where two headings read alike, the source gives them in different places.

What was measured:
Format in all cases: biochemical
[1] = target: T1, KPC-2 (Klebsiella pneumoniae, UniProt Q9F663); assay: nitrocefin hydrolysis at […] nm, […] min pre-incubation
[2] = target: T1, KPC-2; assay: steady-state kinetics of hydrolysis at […] nm
[3] = target: T1, KPC-2; assay: nitrocefin hydrolysis at […] nm, […] min pre-incubation; remark: listed apart in the source

T1 sequence (Q9F663 25-293, looked up): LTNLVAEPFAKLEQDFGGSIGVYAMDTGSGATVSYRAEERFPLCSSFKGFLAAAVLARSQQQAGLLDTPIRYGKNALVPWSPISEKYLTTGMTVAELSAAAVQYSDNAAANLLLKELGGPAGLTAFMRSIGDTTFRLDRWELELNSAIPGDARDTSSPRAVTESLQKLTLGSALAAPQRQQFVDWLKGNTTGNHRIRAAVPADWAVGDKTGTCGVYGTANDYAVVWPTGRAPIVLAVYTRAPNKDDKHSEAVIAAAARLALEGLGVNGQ

Compound O=C(O)[C@H]1/C(=C/CO)O[C@@H]2CC(=O)N21 [clavulanate] has an IC50 [1] of 6.5 µM.
In the case of O=C(Cc1cccs1)N[C@@H]1C(=O)N2C(C(=O)O)=C(/C=C/c3ccc([N+](=O)[O-])cc3[N+](=O)[O-])CS[C@H]12 [nitrocefin], the Km [2] is reported as 52 µM.
With C[C@]1(Cn2ccnn2)[C@H](C(=O)O)N2C(=O)C[C@H]2S1(=O)=O [tazobactam] the IC50 [3] was 9.2 µM.
